From patent US20230167073A1 (Teijin Pharma Limited, priority 2020, published 2023)

Molecular target: T1, Human TRPC6 (Homo sapiens, UniProt Q9Y210)
T1 construct: expressed in transfected cells
T1 sequence (Q9Y210 1-931): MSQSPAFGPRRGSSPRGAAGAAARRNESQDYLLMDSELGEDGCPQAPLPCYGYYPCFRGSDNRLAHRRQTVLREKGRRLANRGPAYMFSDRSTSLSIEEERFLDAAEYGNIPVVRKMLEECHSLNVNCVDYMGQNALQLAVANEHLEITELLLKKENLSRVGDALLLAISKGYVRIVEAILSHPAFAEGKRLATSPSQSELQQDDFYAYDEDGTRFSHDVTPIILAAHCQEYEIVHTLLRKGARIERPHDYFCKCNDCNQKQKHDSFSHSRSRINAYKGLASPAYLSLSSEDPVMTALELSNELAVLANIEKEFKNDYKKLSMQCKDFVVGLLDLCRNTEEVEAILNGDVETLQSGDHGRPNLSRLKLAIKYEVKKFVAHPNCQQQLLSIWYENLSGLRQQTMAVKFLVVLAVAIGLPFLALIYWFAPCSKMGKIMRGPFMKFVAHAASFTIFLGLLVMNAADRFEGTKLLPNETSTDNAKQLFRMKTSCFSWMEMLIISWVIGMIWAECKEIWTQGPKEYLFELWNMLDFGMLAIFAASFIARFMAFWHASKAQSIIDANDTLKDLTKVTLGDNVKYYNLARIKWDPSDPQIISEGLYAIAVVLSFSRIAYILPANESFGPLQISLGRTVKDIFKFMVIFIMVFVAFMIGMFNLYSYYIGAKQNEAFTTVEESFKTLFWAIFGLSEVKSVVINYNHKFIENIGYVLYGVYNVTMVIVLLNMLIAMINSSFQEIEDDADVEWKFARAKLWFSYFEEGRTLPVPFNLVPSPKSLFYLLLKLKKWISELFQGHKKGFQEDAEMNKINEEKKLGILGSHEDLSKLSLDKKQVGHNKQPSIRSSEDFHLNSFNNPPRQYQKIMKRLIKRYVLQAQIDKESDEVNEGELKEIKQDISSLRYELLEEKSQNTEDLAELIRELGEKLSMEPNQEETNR
Test: Evaluation of TRPC6 channel inhibitory activity (1), FLIPR Calcium 5 Assay Kit, OAG stimulation (Compound Nos. 1-1293)
Type: cell-based
Settings: Human TRPC6 stably-expressing cells, OAG 30 μM, FLIPR Calcium 5 Assay Kit; read-out: Inhibitory activity (pIC50 class) (converted)
Outline: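 TRPC6 (human) stable cells, 24 h culture; Ca5 no-wash dye + probenecid 30 min; cpd 20 min; OAG 30 μM final; ΔF (pre-cpd min to post-OAG max); 0%/100% = no cpd / no cpd + no OAG; 4PL → pIC50, binned +/++/+++.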

| SMILES | IC50 |
| --- | --- |
| Cn1nc(C2CC2)cc1Oc1cc(C#N)ccc1-c1ccc(CN2CCNCC2)cn1 [compound 779, 3-(5-cyclopropyl-2-methylpyrazol-3-yl)oxy-4-[5-(piperazin-1-ylmethyl)pyridin-2-yl]benzonitrile] | > 1000 nM |
| N#Cc1ccc(-c2ccc(CCN)cc2)c(Oc2sc(-c3ccccc3)nc2C#N)c1 [compound 807, 5-[2-[4-(2-aminoethyl)phenyl]-5-cyanophenoxy]-2-phenyl-1,3-thiazole-4-carbonitrile] | 10 to 1000 nM |
| Cn1nc(-c2ccccn2)cc1Oc1cc(C#N)ccc1-c1ncc(CCN)cn1 [Compound 285, 4-[5-(2-aminoethyl)pyrimidin-2-yl]-3-(2-methyl-5-pyridin-2-ylpyrazol-3-yl)oxybenzonitrile] | < 10 nM |
| CC(N)c1ccc(-c2ccc(C#N)cc2Oc2cc(-c3ccccn3)nn2C)nc1 (centres unmarked) [compound 396, 4-[5-(1-aminoethyl)pyridin-2-yl]-3-(2-methyl-5-pyridin-2-ylpyrazol-3-yl)oxybenzonitrile] | < 10 nM |
| Cc1nc(Oc2cc(C#N)ccc2-c2ccc(C(CN)c3ccoc3)cc2)cc(N2CCOCC2)n1 (centres unmarked) [Compound 73, 4-[4-[2-amino-1-(furan-3-yl)ethyl]phenyl]-3-(2-methyl-6-morpholin-4-ylpyrimidin-4-yl)oxybenzonitrile] | 10 to 1000 nM |
| Cc1nc(N2CCOCC2)ccc1Oc1cc(C#N)ccc1-c1ncc(CN)cn1 [compound 922, 4-[5-(aminomethyl)pyrimidin-2-yl]-3-(2-methyl-6-morpholin-4-ylpyridin-3-yl)oxybenzonitrile] | > 1000 nM |
| Cn1nc(C2CC2)cc1Oc1cc(C#N)ccc1-c1nccc(CN)n1 [compound 680, 4-[4-(aminomethyl)pyrimidin-2-yl]-3-(5-cyclopropyl-2-methylpyrazol-3-yl)oxybenzonitrile] | > 1000 nM |
| Cc1nc(Oc2cc(C#N)ccc2-c2ccc(C(O)CN)cc2)cc(N2CCOCC2)n1 (centres unmarked) [Compound 9, 4-[4-(2-amino-1-hydroxyethyl)phenyl]-3-(2-methyl-6-morpholin-4-ylpyrimidin-4-yl)oxybenzonitrile] | < 10 nM |
| N#Cc1ccc(-c2ncc(CCN)cn2)c(Oc2nnc(N3CCCCC3)s2)c1 [compound 704, 4-[5-(2-aminoethyl)pyrimidin-2-yl]-3-[(5-piperidin-1-yl-1,3,4-thiadiazol-2-yl)oxy]benzonitrile] | < 10 nM |
| N#Cc1ccc(-c2ccc([C@@H](O)CN)cn2)c(Cn2cncc2-c2ccccc2)c1 [compound 1136, 4-[5-[(1R)-2-amino-1-hydroxyethyl]pyridin-2-yl]-3-[(5-phenylimidazol-1-yl)methyl]benzonitrile] | > 1000 nM |
| N#Cc1ccc(-c2ccc(CCN)cc2)c(Oc2cnnc(-c3ccccc3O)c2)c1 [Compound 70, 4-[4-(2-aminoethyl)phenyl]-3-[6-(2-hydroxyphenyl)pyridazin-4-yl]oxybenzonitrile] | < 10 nM |
| N#Cc1ccc(-c2ncc(CN)cn2)c(Oc2cnnc(N3CCCC3)c2)c1 [compound 714, 4-[5-(aminomethyl)pyrimidin-2-yl]-3-(6-pyrrolidin-1-ylpyridazin-4-yl)oxybenzonitrile] | < 10 nM |
| N#Cc1ccc(-c2ncc(CCN)cn2)c(Cn2cc(-c3ccccc3)nn2)c1 [compound 1167, 4-[5-(2-aminoethyl)pyrimidin-2-yl]-3-[(4-phenyltriazol-1-yl)methyl]benzonitrile] | < 10 nM |
| Cc1nc(Oc2cc(C#N)ccc2-n2cc([C@@H](O)CNC3COC3)cn2)cc(-c2ccccc2)n1 [Compound 244, 4-[4-[(1R)-1-hydroxy-2-(oxetan-3-ylamino)ethyl]pyrazol-1-yl]-3-(2-methyl-6-phenylpyrimidin-4-yl)oxybenzonitrile] | 10 to 1000 nM |
| CN(C)c1cc(Oc2cc(C#N)ccc2-c2ncc(CN)cn2)cnn1 [compound 716, 4-[5-(aminomethyl)pyrimidin-2-yl]-3-[6-(dimethylamino)pyridazin-4-yl]oxybenzonitrile] | 10 to 1000 nM |
| Cc1nc(OCC(F)F)cc(Oc2cc(C#N)ccc2-c2ncc(CN)cn2)n1 [compound 897, 4-[5-(aminomethyl)pyrimidin-2-yl]-3-[6-(2,2-difluoroethoxy)-2-methylpyrimidin-4-yl]oxybenzonitrile] | > 1000 nM |
| Cn1nc(-c2ccccc2)cc1Oc1nc(Cl)ccc1-c1ccc(CN)cn1 [compound 1293, [6-[6-chloro-2-(2-methyl-5-phenylpyrazol-3-yl)oxypyridin-3-yl]pyridin-3-yl]methanamine] | 10 to 1000 nM |
| N#Cc1ccc(-c2ccc(CCN)cn2)c(Oc2nnc(C3CC3)s2)c1 [compound 718, 4-[5-(2-aminoethyl)pyridin-2-yl]-3-[(5-cyclopropyl-1,3,4-thiadiazol-2-yl)oxy]benzonitrile] | < 10 nM |
| Cc1nc(Oc2cc(C#N)ccc2-c2ccc(CCN)cc2)cc(-c2nccs2)n1 [Compound 40, 4-[4-(2-aminoethyl)phenyl]-3-[2-methyl-6-(1,3-thiazol-2-yl)pyrimidin-4-yl]oxybenzonitrile] | > 1000 nM |
| Cc1cc(Oc2cc(C#N)ccc2-c2ccc([C@H](O)CN)cn2)cc(N2CC(F)C2)n1 [compound 502, 4-[5-[(1S)-2-amino-1-hydroxyethyl]pyridin-2-yl]-3-[2-(3-fluoroazetidin-1-yl)-6-methylpyridin-4-yl]oxybenzonitrile] | < 10 nM |
| N#Cc1ccc(-c2ncc(CCN)cn2)c(C(=O)c2cnn(C3CCC3)c2)c1 [compound 1057, 4-[5-(2-aminoethyl)pyrimidin-2-yl]-3-(1-cyclobutylpyrazole-4-carbonyl)benzonitrile] | < 10 nM |
| Cc1cc(Oc2cc(C#N)ccc2-c2ncc([C@H](O)CN)cn2)cc(-c2nc(C)cs2)n1 [compound 600, 4-[5-[(1S)-2-amino-1-hydroxyethyl]pyrimidin-2-yl]-3-[2-methyl-6-(4-methyl-1,3-thiazol-2-yl)pyridin-4-yl]oxybenzonitrile] | 10 to 1000 nM |

Other lines, results leading:

| IC50 | SMILES |
| --- | --- |
| 10 to 1000 nM | Cc1cc(Oc2cc(C#N)ccc2-c2ccc([C@H](O)CN)cn2)cc(C)n1 [compound 437, 4-[5-[(1S)-2-amino-1-hydroxyethyl]pyridin-2-yl]-3-(2,6-dimethylpyridin-4-yl)oxybenzonitrile] |
| 10 to 1000 nM | Cc1nc(Oc2cc(C#N)ccc2-c2ccc(C(O)CN)c(CC#N)c2)cc(N2CCOCC2)n1 (centres unmarked) [Compound 158, 4-[4-(2-amino-1-hydroxyethyl)-3-(cyanomethyl)phenyl]-3-(2-methyl-6-morpholin-4-ylpyrimidin-4-yl)oxybenzonitrile] |
| < 10 nM | CCN(CC)c1cc(Cc2cc(C#N)ccc2-c2ncc(CCN)cn2)n(C)n1 [compound 1207, 4-[5-(2-aminoethyl)pyrimidin-2-yl]-3-[[5-(diethylamino)-2-methylpyrazol-3-yl]methyl]benzonitrile] |
| < 10 nM | CN(CC(F)F)c1cc(Oc2cc(F)ccc2-c2ncc(CCN)cn2)n(C)n1 [compound 987, 5-[2-[5-(2-aminoethyl)pyrimidin-2-yl]-5-fluorophenoxy]-N-(2,2-difluoroethyl)-N,1-dimethylpyrazole-3-amine] |
| < 10 nM | Cn1nc(-c2ccccc2)cc1Oc1cc(C#N)ccc1-c1ccc(CCN)nn1 [compound 312, 4-[6-(2-aminoethyl)pyridazin-3-yl]-3-(2-methyl-5-phenylpyrazol-3-yl)oxybenzonitrile] |
| 10 to 1000 nM | Cc1nc(Oc2cc(C#N)ccc2-n2cc([C@@H](O)CN)cn2)cc(-c2ccccc2C)n1 [compound 358, 4-[4-[(1R)-2-amino-1-hydroxyethyl]pyrazol-1-yl]-3-[2-methyl-6-(2-methylphenyl)pyrimidin-4-yl]oxybenzonitrile] |
| 10 to 1000 nM | Cc1nc(Oc2cc(C#N)ccc2-n2cc([C@@H](O)CN)cn2)cc(-c2ccccc2Cl)n1 [compound 340, 4-[4-[(1R)-2-amino-1-hydroxyethyl]pyrazol-1-yl]-3-[6-(2-chlorophenyl)-2-methylpyrimidin-4-yl]oxybenzonitrile] |
| 10 to 1000 nM | N#Cc1ccc(-c2ccc(CCN)nc2)c(Cn2cnc(-c3ccccc3)c2)c1 [compound 1132, 4-[6-(2-aminoethyl)pyridin-3-yl]-3-[(4-phenylimidazol-1-yl)methyl]benzonitrile] |
| > 1000 nM | Cn1nc(-c2ccccc2)cc1Oc1cc(C#N)ccc1-c1ccc2c(N)noc2c1 [compound 415, 4-(3-amino-1,2-benzoxazol-6-yl)-3-(2-methyl-5-phenylpyrazol-3-yl)oxybenzonitrile] |
| < 10 nM | CC(C)Cc1cn(Cc2cc(C#N)ccc2-c2ncc(CCN)cn2)nn1 [compound 1184, 4-[5-(2-aminoethyl)pyrimidin-2-yl]-3-[[4-(2-methylpropyl)triazol-1-yl]methyl]benzonitrile] |
